Results as given in patent US20220218689A1, “T[…] COMPOSITIONS AND METHODS FOR USING THE SAME” (Saniona A/S, priority 2018, published 2022).

Columns and labels:
[1] = In vitro skin flux study (Franz cell transdermal flux test); format: in vitro ADME, human; details: free base; conclusion from the in vitro skin flux study
From the text: Human cadaver skin was used and epidermal layers (stratum corneum and epidermis) were separated from the full-thickness skin as skin membrane. Samples were die-cut with an arch punch to a final diameter of about 2.0 cm^2. The release liner was removed and the system was placed on top of the epidermis/stratum corneum with the drug adhesive layer facing the stratum corneum. Gentle pressure was applied to effect good contact between the adhesive layer and stratum corneum. The donor and receptor sides of the Franz cell were clamped together and the receptor solution containing a phosphate buffer at pH 6.5 was added to the Franz cell. The cells were kept at 33° C. for the duration of the experiment. Samples of the receptor solution were taken at regular intervals and the active agent concentration was measured by HPLC. The removed receptor solution was replaced with fresh solution to maintain the sink conditions. The flux was calculated from the slope of cumulative amounts of the drug in the receiver compartment versus time plot.
Transdermal delivery devices containing various formulations of (1 R,2 R,3 S,5 S)-3-(3,4-dichlorophenyl)-2-(methoxymethyl)-8-azabicyclo[3.2.1]octane (i.e., NS2359) are summarized in Table 1. An in vitro skin flux study was performed as described above with transdermal delivery devices having the formulations listed in Table 1. […]

[2] = Astrup et al., 2008, Lancet 372: 1906-13; cited from earlier work

## COC[C@@H]1[C@@H](c2ccc(Cl)c(Cl)c2)C[C@@H]2CC[C@H]1N2 [NS2359, (1 R,2 R,3 S,5 S)-3-(3,4-dichlorophenyl)-2-(methoxymethyl)-8-azabicyclo[3.2.1]octane]
[1]
  Transdermal deliverability: can be delivered transdermally

## CCOC[C@@H]1[C@@H](c2ccc(Cl)c(Cl)c2)C[C@@H]2CC[C@H]1N2C [Tesofensine, (1 R,2 R,3 S,5 S)-3-(3,4-dichlorophenyl)-2-(ethoxymethyl)-8-methyl-8-azabicyclo[3.2.1]octane]
[2]
  Sagittal diameter: significantly decreases
  Waist circumference: significantly decreases
